One compound from PMC5218480 (PLoS ONE, 2017) can be followed below.

The subject of the experiment is MV-4-11 cells. The experiment is described as follows: Gene expression microarray analysis (Affymetrix PrimeView) and GSEA. In kind it is cell-based, human. Also on record: RFU PODN (11730768_x_at) / Fold change /veh PODN (11730768_x_at) / RFU LINC00158 (11744669_a_at) / Fold change /veh LINC00158 (11744669_a_at) / RFU DUSP10 (11751237_a_at) / Fold change /veh DUSP10 (11751237_a_at) / RFU ID3 (11757404_x_at) / Fold change /veh ID3 (11757404_x_at) / RFU PLEKHG5 (11737974_s_at) / Fold change /veh PLEKHG5 (11737974_s_at) / RFU LRRC4B (11730491_at) / Fold change /veh LRRC4B (11730491_at) / RFU GIMAP4 (11747438_a_at) / Fold change /veh GIMAP4 (11747438_a_at) / RFU KRT8 (11758183_x_at) / Fold change /veh KRT8 (11758183_x_at) / RFU CNN1 (11734310_a_at) / Fold change /veh CNN1 (11734310_a_at) / RFU VPS37D (11726825_at) / Fold change /veh VPS37D (11726825_at) / RFU C10orf10 (11716522_x_at) / Fold change /veh C10orf10 (11716522_x_at) / RFU KIR2DL2 /// KIR2DL4 /// KIR2DL5A /// KIR2DL5B /// KIR2DS1 /// KIR2DS2 /// KIR2DS3 /// KIR2DS4 /// KIR3DL3 /// KIR3DL3 /// KIR3DS1 (11738374_at) / Fold change /veh KIR2DL2 /// KIR2DL4 /// KIR2DL5A /// KIR2DL5B /// KIR2DS1 /// KIR2DS2 /// KIR2DS3 /// KIR2DS4 /// KIR3DL3 /// KIR3DL3 /// KIR3DS1 (11738374_at) / RFU C1QL1 (11718748_at) / Fold change /veh C1QL1 (11718748_at) / RFU TMPRSS4 (11747572_a_at) / Fold change /veh TMPRSS4 (11747572_a_at) / RFU HAMP (11756126_x_at) / Fold change /veh HAMP (11756126_x_at) / RFU RNFT2 (11725882_a_at) / Fold change /veh RNFT2 (11725882_a_at) / RFU NR4A2 (11747474_a_at) / Fold change /veh NR4A2 (11747474_a_at) / RFU ABCC12 (11746883_a_at) / Fold change /veh ABCC12 (11746883_a_at) / RFU TMEM136 (11760407_x_at) / Fold change /veh TMEM136 (11760407_x_at) / RFU CLDN22 /// WWC2 (11732394_at) / Fold change /veh CLDN22 /// WWC2 (11732394_at) / RFU HLA-DPB1 (11760878_x_at) / Fold change /veh HLA-DPB1 (11760878_x_at) / RFU SPINT1 (11716480_a_at) / Fold change /veh SPINT1 (11716480_a_at) / RFU GAP43 (11754022_s_at) / Fold change /veh GAP43 (11754022_s_at) / RFU A4GNT (11735810_at) / Fold change /veh A4GNT (11735810_at) / RFU PRB3 (11715151_x_at) / Fold change /veh PRB3 (11715151_x_at) / RFU TUBB4B (11761932_at) / Fold change /veh TUBB4B (11761932_at) / RFU CAPN14 (11732068_a_at) / Fold change /veh CAPN14 (11732068_a_at) / RFU TMCC2 (11721928_a_at) / Fold change /veh TMCC2 (11721928_a_at) / RFU IRGQ (11745062_a_at) / Fold change /veh IRGQ (11745062_a_at) / RFU FAM174B (11720279_a_at) / Fold change /veh FAM174B (11720279_a_at) / RFU TMPRSS4 (11748680_a_at) / Fold change /veh TMPRSS4 (11748680_a_at) / RFU FAM212B (11763350_a_at) / Fold change /veh FAM212B (11763350_a_at) / RFU PLEKHG5 (11743358_a_at) / Fold change /veh PLEKHG5 (11743358_a_at) / RFU ZSCAN30 (11745921_a_at) / Fold change /veh ZSCAN30 (11745921_a_at) / RFU CMKLR1 (11741424_a_at) / Fold change /veh CMKLR1 (11741424_a_at) / RFU LOC101060620 /// MAPK8IP1 (11723275_at) / Fold change /veh LOC101060620 /// MAPK8IP1 (11723275_at) / RFU SPTSSB (11747773_x_at) / Fold change /veh SPTSSB (11747773_x_at) / RFU PRSS12 (11739890_at) / Fold change /veh PRSS12 (11739890_at) / RFU BIN1 (11741810_x_at) / Fold change /veh BIN1 (11741810_x_at) / RFU WNT11 (11732464_a_at) / Fold change /veh WNT11 (11732464_a_at) / RFU C10orf10 (11716521_a_at) / Fold change /veh C10orf10 (11716521_a_at) / RFU C5orf56 (11738089_at) / Fold change /veh C5orf56 (11738089_at) / RFU CYB561 (11721691_x_at) / Fold change /veh CYB561 (11721691_x_at) / RFU ANKRD19P (11752326_a_at) / Fold change /veh ANKRD19P (11752326_a_at) / RFU OR2T12 /// OR2T33 /// OR2T8 (11738714_s_at) / Fold change /veh OR2T12 /// OR2T33 /// OR2T8 (11738714_s_at) / RFU VCAN (11748164_a_at) / Fold change /veh VCAN (11748164_a_at) / RFU JSRP1 (11732532_at) / Fold change /veh JSRP1 (11732532_at) / RFU KRTAP10-11 (11738290_x_at) / Fold change /veh KRTAP10-11 (11738290_x_at) / RFU MYO3A (11730013_a_at) / Fold change /veh MYO3A (11730013_a_at) / RFU EBF3 (11725865_a_at) / Fold change /veh EBF3 (11725865_a_at) / RFU CAMK2N1 (11719241_x_at) / Fold change /veh CAMK2N1 (11719241_x_at) / RFU C5orf56 (11738088_a_at) / Fold change /veh C5orf56 (11738088_a_at) / RFU OLFML3 (11715873_a_at) / Fold change /veh OLFML3 (11715873_a_at) / RFU LOC100653217 /// NTM (11731650_a_at) / Fold change /veh LOC100653217 /// NTM (11731650_a_at) / RFU MAPK11 (11762145_a_at) / Fold change /veh MAPK11 (11762145_a_at) / RFU FIZ1 (11724087_x_at) / Fold change /veh FIZ1 (11724087_x_at) / RFU OASL (11726364_x_at) / Fold change /veh OASL (11726364_x_at) / RFU SOX15 (11748057_x_at) / Fold change /veh SOX15 (11748057_x_at) / RFU CD79A (11719716_a_at) / Fold change /veh CD79A (11719716_a_at) / RFU HIST1H1D (11736915_at) / Fold change /veh HIST1H1D (11736915_at) / RFU CASKIN2 (11723855_a_at) / Fold change /veh CASKIN2 (11723855_a_at) / RFU LOC730098 (11760151_x_at) / Fold change /veh LOC730098 (11760151_x_at) / RFU OR4N2 (11742367_at) / Fold change /veh OR4N2 (11742367_at) / RFU PRRT2 (11749266_a_at) / Fold change /veh PRRT2 (11749266_a_at) / RFU SNX32 (11753110_a_at) / Fold change /veh SNX32 (11753110_a_at) / RFU CDHR5 (11726645_a_at) / Fold change /veh CDHR5 (11726645_a_at) / RFU RCAN1 (11760418_a_at) / Fold change /veh RCAN1 (11760418_a_at) / RFU FAM167A (11723789_a_at) / Fold change /veh FAM167A (11723789_a_at) / RFU FAM26E (11764081_at) / Fold change /veh FAM26E (11764081_at) / RFU ISYNA1 (11749810_s_at) / Fold change /veh ISYNA1 (11749810_s_at) / RFU ACY1 (11761880_at) / Fold change /veh ACY1 (11761880_at) / RFU 11764098_at / Fold change /veh 11764098_at / RFU SAMD14 (11745864_x_at) / Fold change /veh SAMD14 (11745864_x_at) / RFU NPB (11741838_a_at) / Fold change /veh NPB (11741838_a_at) / RFU TMPRSS6 (11731388_a_at) / Fold change /veh TMPRSS6 (11731388_a_at) / RFU KRTAP10-2 (11738614_at) / Fold change /veh KRTAP10-2 (11738614_at) / RFU ARHGAP8 /// PRR5-ARHGAP8 (11727945_x_at) / Fold change /veh ARHGAP8 /// PRR5-ARHGAP8 (11727945_x_at) / RFU KRTAP5-7 /// NADSYN1 (11734609_at) / Fold change /veh KRTAP5-7 /// NADSYN1 (11734609_at) / RFU RASL12 (11751679_a_at) / Fold change /veh RASL12 (11751679_a_at) / RFU CDKN2B (11736163_a_at) / Fold change /veh CDKN2B (11736163_a_at) / RFU PRF1 (11729649_at) / Fold change /veh PRF1 (11729649_at) / RFU, ZNF638 /// ZNF638-IT1 / Fold change vs veh, ZNF638 /// ZNF638-IT1 / RFU, PANK3 / Fold change vs veh, PANK3 / RFU, SH3YL1 / Fold change vs veh, SH3YL1 / RFU, ZEB2 / Fold change vs veh, ZEB2 / RFU, NRIP1 / Fold change vs veh, NRIP1 / RFU, PTTG1IP / Fold change vs veh, PTTG1IP / RFU, CAPN2 / Fold change vs veh, CAPN2 / RFU, MED14 / Fold change vs veh, MED14 / RFU, SNORA58 / Fold change vs veh, SNORA58 / RFU, C1orf63 / Fold change vs veh, C1orf63 / RFU, LRRFIP1 / Fold change vs veh, LRRFIP1 / RFU, NDUFAF7 / Fold change vs veh, NDUFAF7 / RFU, SLC12A2 / Fold change vs veh, SLC12A2 / RFU, IBTK / Fold change vs veh, IBTK / RFU, ESF1 / Fold change vs veh, ESF1 / Fold change vs veh, TMEM50B / RFU, TAOK1 / Fold change vs veh, TAOK1 / RFU, ACBD3 / Fold change vs veh, ACBD3 / RFU, TMA16 / Fold change vs veh, TMA16 / RFU, RWDD3 / Fold change vs veh, RWDD3 / RFU, BCAT1 / Fold change vs veh, BCAT1 / RFU, EDEM3 / Fold change vs veh, EDEM3 / RFU, TMEM33 / Fold change vs veh, TMEM33 / RFU, WDR75 / Fold change vs veh, WDR75 / RFU, AHCTF1 / Fold change vs veh, AHCTF1 / RFU, TFRC / Fold change vs veh, TFRC / RFU, ZDHHC17 / Fold change vs veh, ZDHHC17 / RFU, NOM1 / Fold change vs veh, NOM1 / RFU, ARL8B / Fold change vs veh, ARL8B / RFU, ZBTB11 / Fold change vs veh, ZBTB11 / RFU, TAMM41 / Fold change vs veh, TAMM41 / RFU, KIAA1704 /// LOC100996395 / Fold change vs veh, KIAA1704 /// LOC100996395 / RFU, ING1 / Fold change vs veh, ING1 / RFU, TRMT61B / Fold change vs veh, TRMT61B / RFU, FUBP3 / Fold change vs veh, FUBP3 / RFU, TP53 / Fold change vs veh, TP53 / RFU, TNKS2 / Fold change vs veh, TNKS2 / RFU, ZFP14 / Fold change vs veh, ZFP14 / RFU, ACTR2 / Fold change vs veh, ACTR2 / RFU, PPP3R1 / Fold change vs veh, PPP3R1 / RFU, PIK3R1 / Fold change vs veh, PIK3R1 / RFU, HNRNPA1 / Fold change vs veh, HNRNPA1 / RFU, RNF170 / Fold change vs veh, RNF170 / RFU, ZNF28 / Fold change vs veh, ZNF28 / RFU, RNGTT / Fold change vs veh, RNGTT / RFU, OGT / Fold change vs veh, OGT / RFU, BRD1 / Fold change vs veh, BRD1 / RFU, MARS / Fold change vs veh, MARS / RFU, ZNF655 / Fold change vs veh, ZNF655 / RFU, FAHD1 / Fold change vs veh, FAHD1 / RFU, BDP1 / Fold change vs veh, BDP1 / RFU, LRRCC1 / Fold change vs veh, LRRCC1 / RFU, ARID1A / Fold change vs veh, ARID1A / RFU, ZNF146 / Fold change vs veh, ZNF146 / RFU, ZNF330 / Fold change vs veh, ZNF330 / RFU, GPN3 / Fold change vs veh, GPN3 / RFU, C9orf123 / Fold change vs veh, C9orf123 / RFU, N4BP2L2 / Fold change vs veh, N4BP2L2 / RFU, ARFIP1 / Fold change vs veh, ARFIP1 / RFU, FAM179B / Fold change vs veh, FAM179B / RFU, BCL10 / Fold change vs veh, BCL10 / RFU, UHRF1BP1L / Fold change vs veh, UHRF1BP1L / RFU, BET1 / Fold change vs veh, BET1 / RFU, CNOT2 / Fold change vs veh, CNOT2 / RFU, ZNF268 / Fold change vs veh, ZNF268 / Fold change vs veh, ZNF507 / RFU, DGCR2 / Fold change vs veh, DGCR2 / RFU, WDSUB1 / Fold change vs veh, WDSUB1 / Fold change vs veh, HSP90B1 /// MIR3652 / RFU, ADSS / Fold change vs veh, ADSS / RFU, GK / Fold change vs veh, GK / RFU, ZNF148 / Fold change vs veh, ZNF148 / RFU, TAF9 / Fold change vs veh, TAF9 / RFU, SLC1A5 / Fold change vs veh, SLC1A5 / RFU, SLMO2 / Fold change vs veh, SLMO2 / RFU, ABCC4 / Fold change vs veh, ABCC4 / RFU, LOC101060439 /// RAP1B / Fold change vs veh, LOC101060439 /// RAP1B / RFU, RFX7 / Fold change vs veh, RFX7 / RFU, GTPBP10 / Fold change vs veh, GTPBP10 / RFU, CNEP1R1 / Fold change vs veh, CNEP1R1 / RFU, BIVM-ERCC5 /// ERCC5 / Fold change vs veh, BIVM-ERCC5 /// ERCC5 / RFU, ILF3 / Fold change vs veh, ILF3 / RFU 11762660_at / Fold change /veh 11762660_at / RFU VCAN (11757783_s_at) / Fold change /veh VCAN (11757783_s_at) / RFU DDX43 (11728927_at) / Fold change /veh DDX43 (11728927_at) / RFU KRT8 (11758188_x_at) / Fold change /veh KRT8 (11758188_x_at) / RFU NKD1 (11759106_at) / Fold change /veh NKD1 (11759106_at) / RFU SRD5A1 (11742802_a_at) / Fold change /veh SRD5A1 (11742802_a_at) / RFU TPSAB1 /// TPSB2 (11721975_s_at) / Fold change /veh TPSAB1 /// TPSB2 (11721975_s_at) / RFU GSTM3 (11746129_a_at) / Fold change /veh GSTM3 (11746129_a_at) / RFU IL23R (11737362_x_at) / Fold change /veh IL23R (11737362_x_at) / RFU TMEM51 (11727254_a_at) / Fold change /veh TMEM51 (11727254_a_at) / RFU PIWIL2 (11732686_x_at) / Fold change /veh PIWIL2 (11732686_x_at) / RFU ORM1 (11744905_x_at) / Fold change /veh ORM1 (11744905_x_at) / RFU CCDC152 (11743942_at) / Fold change /veh CCDC152 (11743942_at) / RFU ECM1 (11717891_a_at) / Fold change /veh ECM1 (11717891_a_at) / RFU IL23R (11748794_a_at) / Fold change /veh IL23R (11748794_a_at) / RFU TNFAIP8L3 (11732012_x_at) / Fold change /veh TNFAIP8L3 (11732012_x_at) / RFU MBOAT4 (11741988_at) / Fold change /veh MBOAT4 (11741988_at) / RFU 11764193_at / Fold change /veh 11764193_at / RFU TMEM53 (11763286_at) / Fold change /veh TMEM53 (11763286_at) / RFU MAGEB2 (11727129_at) / Fold change /veh MAGEB2 (11727129_at) / RFU TMEM200A (11744735_a_at) / Fold change /veh TMEM200A (11744735_a_at) / RFU CCDC152 (11751479_a_at) / Fold change /veh CCDC152 (11751479_a_at) / RFU FAM211A (11726209_a_at) / Fold change /veh FAM211A (11726209_a_at) / RFU RGS16 (11746705_a_at) / Fold change /veh RGS16 (11746705_a_at) / RFU VCAN (11755009_s_at) / Fold change /veh VCAN (11755009_s_at) / RFU RHOB (11743442_s_at) / Fold change /veh RHOB (11743442_s_at) / RFU RGS16 (11720943_a_at) / Fold change /veh RGS16 (11720943_a_at) / RFU RGS16 (11720944_at) / Fold change /veh RGS16 (11720944_at) / RFU, VPS4B / Fold change vs veh, VPS4B / RFU, CREB1 / Fold change vs veh, CREB1 / RFU, DNAJC13 / Fold change vs veh, DNAJC13 / RFU, GNAQ / Fold change vs veh, GNAQ / RFU, CDK5R1 / Fold change vs veh, CDK5R1 / RFU, ZRANB3 / Fold change vs veh, ZRANB3 / RFU, CUL4A / Fold change vs veh, CUL4A / RFU, CCNY / Fold change vs veh, CCNY / RFU, UFL1 / Fold change vs veh, UFL1 / RFU, COG3 / Fold change vs veh, COG3 / RFU, DIAPH2 / Fold change vs veh, DIAPH2 / RFU, SKA2 / Fold change vs veh, SKA2 / RFU, AFF3 / Fold change vs veh, AFF3 / RFU, LMF1 / Fold change vs veh, LMF1 / RFU, IPO11 / Fold change vs veh, IPO11 / RFU, DFFB / Fold change vs veh, DFFB / RFU, FOXP1 / Fold change vs veh, FOXP1 / RFU, CARD8 / Fold change vs veh, CARD8 / RFU, STRN3 / Fold change vs veh, STRN3 / RFU, ADK / Fold change vs veh, ADK / RFU, RASSF2 / Fold change vs veh, RASSF2 / RFU, WIPF1 / Fold change vs veh, WIPF1 / RFU, LARP1B / Fold change vs veh, LARP1B / RFU, RASA1 / Fold change vs veh, RASA1 / RFU, RB1 / Fold change vs veh, RB1 / RFU, PPFIA1 / Fold change vs veh, PPFIA1 / RFU, MAT2A / Fold change vs veh, MAT2A / RFU, CCT5 / Fold change vs veh, CCT5 / RFU, WDR92 / Fold change vs veh, WDR92 / RFU, CUX1 / Fold change vs veh, CUX1 / RFU, TTC7A / Fold change vs veh, TTC7A / RFU, TMEM135 / Fold change vs veh, TMEM135 / RFU, DEPTOR / Fold change vs veh, DEPTOR / RFU, CPM / Fold change vs veh, CPM / RFU, DNAJB6 / Fold change vs veh, DNAJB6 / RFU, CACNA2D3 / Fold change vs veh, CACNA2D3 / RFU, DTX4 / Fold change vs veh, DTX4 / RFU, TFCP2 / Fold change vs veh, TFCP2 / RFU, GMCL1 /// GMCL1P1 / Fold change vs veh, GMCL1 /// GMCL1P1 / RFU, AEBP2 / Fold change vs veh, AEBP2 / RFU, SNHG1 /// SNORD22 /// SNORD25 /// SNORD26 /// SNORD27 /// SNORD28 /// SNORD29 /// SNORD31 / Fold change vs veh, SNHG1 /// SNORD22 /// SNORD25 /// SNORD26 /// SNORD27 /// SNORD28 /// SNORD29 /// SNORD31 / Fold change (Aza/veh), C12orf56 (ProbeSet 11735607_a_at) / Fold change (ACY-1035/veh), C12orf56 (ProbeSet 11735607_a_at) / Fold change (Aza/veh), FGFR1OP (ProbeSet 11751329_s_at) / Fold change (ACY-1035/veh), FGFR1OP (ProbeSet 11751329_s_at) / Fold change (Aza/veh), VPS36 (ProbeSet 11739960_a_at) / Fold change (ACY-1035/veh), VPS36 (ProbeSet 11739960_a_at) / RFU SYPL1 (11715823_x_at) / Fold change /veh SYPL1 (11715823_x_at) / RFU IGFBP7 (11715501_s_at) / Fold change /veh IGFBP7 (11715501_s_at) / RFU REEP3 (11722064_at) / Fold change /veh REEP3 (11722064_at) / RFU IGLL1 (11728026_x_at) / Fold change /veh IGLL1 (11728026_x_at): dose or concentration left out as unconfirmed. Conditions: MV-4-11 cells, 48 hours.

With `Nc1ccc(-c2cccs2)cc1NC(=O)c1ccc2c(c1)cc(C1CC1)n2CCN1CCOCC1` [ACY-1035], the “Fold change /veh IL23R (11748794_a_at)” value was 0.98.
